Data as given in ChEMBL document CHEMBL3992481 (2016).
Values after ≈ are worked out from the molar mass of the structure shown. Active and inactive are the calls of the source. The rule behind the calls is not given here.

How the values were obtained:
[1] = test system: Mycobacterium tuberculosis H37Rv; experiment: Ratio of MIC for inhibition of lipase in Mycobacterium tuberculosis H37Rv assessed as cell growth inhibition in absence of lalistat to MIC for inhibition of lipase in Mycobacterium tuberculosis H37Rv assessed as cell growth inhibition in presence of lalistat
[2] = test system: Mycobacterium tuberculosis; experiment: Antitubercular activity against Mycobacterium tuberculosis H37Rv assessed as cell growth inhibition by microbroth dilution assay; type: functional
[3] = test system: Mycobacterium tuberculosis; experiment: Antitubercular activity against Mycobacterium tuberculosis H37Rv; type: functional
[4] = test system: Mycobacterium tuberculosis H37Rv; experiment: Inhibition of lipase in Mycobacterium tuberculosis H37Rv assessed as cell growth inhibition after 7 days by resazurin assay
[5] = target: T1, Putative acetyl-hydrolase LipR (Mycobacterium tuberculosis (strain ATCC 25618 / H37Rv)) (UniProt P9WK85); experiment: Binding affinity to N-terminal His6-tagged Mycobacterium tuberculosis H37Rv ATCC 25618 lipase-R at 30 uM after 30 mins by RhN3 staining based fluorescence assay
T1 sequence (whole entry): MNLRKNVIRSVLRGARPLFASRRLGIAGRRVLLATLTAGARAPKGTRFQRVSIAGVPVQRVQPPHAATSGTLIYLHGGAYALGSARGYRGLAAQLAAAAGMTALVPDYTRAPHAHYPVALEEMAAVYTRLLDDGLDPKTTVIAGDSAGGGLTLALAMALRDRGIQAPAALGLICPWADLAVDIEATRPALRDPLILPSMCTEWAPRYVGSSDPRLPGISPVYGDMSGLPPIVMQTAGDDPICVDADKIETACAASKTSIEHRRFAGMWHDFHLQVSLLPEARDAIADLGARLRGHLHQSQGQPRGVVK

[6] = target: T2, Esterase LipI (Mycobacterium tuberculosis (strain ATCC 25618 / H37Rv)) (UniProt P71668); experiment: Competitive binding affinity to Mycobacterium tuberculosis H37Rv ATCC 25618 lipase-I at 60 uM preincubated for 60 mins followed by La-1 probe addition measured after 30 mins by ABPP method
T2 sequence (whole entry): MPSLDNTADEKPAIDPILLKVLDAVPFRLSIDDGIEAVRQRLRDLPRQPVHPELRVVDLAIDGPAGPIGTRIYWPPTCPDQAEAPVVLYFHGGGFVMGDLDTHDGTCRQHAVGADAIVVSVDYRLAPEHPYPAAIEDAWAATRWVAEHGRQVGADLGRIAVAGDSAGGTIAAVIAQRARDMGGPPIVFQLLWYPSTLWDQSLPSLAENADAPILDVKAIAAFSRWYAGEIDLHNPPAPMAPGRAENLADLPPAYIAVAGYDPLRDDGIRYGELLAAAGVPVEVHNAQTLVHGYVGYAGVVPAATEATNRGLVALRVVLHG

[7] = target: T3, Carboxylic ester hydrolase (Mycobacterium tuberculosis (strain ATCC 25618 / H37Rv)) (UniProt O53488); experiment: Competitive binding affinity to Mycobacterium tuberculosis H37Rv ATCC 25618 lipase-T at 60 uM preincubated for 60 mins followed by La-1 probe addition measured after 30 mins by ABPP method
T3 sequence (whole entry): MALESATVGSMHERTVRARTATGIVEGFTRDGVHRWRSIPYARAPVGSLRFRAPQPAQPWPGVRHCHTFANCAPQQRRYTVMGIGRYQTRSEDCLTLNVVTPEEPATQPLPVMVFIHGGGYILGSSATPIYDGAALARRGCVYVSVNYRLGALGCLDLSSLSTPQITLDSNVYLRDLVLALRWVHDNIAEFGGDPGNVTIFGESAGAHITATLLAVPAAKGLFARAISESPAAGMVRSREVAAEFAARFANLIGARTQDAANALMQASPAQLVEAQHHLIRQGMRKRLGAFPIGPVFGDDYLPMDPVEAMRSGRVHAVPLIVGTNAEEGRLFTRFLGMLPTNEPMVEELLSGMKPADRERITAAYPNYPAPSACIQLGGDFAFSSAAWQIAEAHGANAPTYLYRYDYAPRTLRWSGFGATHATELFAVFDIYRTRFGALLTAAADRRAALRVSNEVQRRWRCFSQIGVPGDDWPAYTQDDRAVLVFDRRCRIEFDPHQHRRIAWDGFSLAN

[8] = target: T4, Probable carboxylic ester hydrolase LipM (Mycobacterium tuberculosis (strain ATCC 25618 / H37Rv)) (UniProt Q50681); experiment: Competitive binding affinity to Mycobacterium tuberculosis H37Rv ATCC 25618 lipase-M at 60 uM preincubated for 60 mins followed by La-1 probe addition measured after 30 mins by ABPP method
T4 sequence (whole entry): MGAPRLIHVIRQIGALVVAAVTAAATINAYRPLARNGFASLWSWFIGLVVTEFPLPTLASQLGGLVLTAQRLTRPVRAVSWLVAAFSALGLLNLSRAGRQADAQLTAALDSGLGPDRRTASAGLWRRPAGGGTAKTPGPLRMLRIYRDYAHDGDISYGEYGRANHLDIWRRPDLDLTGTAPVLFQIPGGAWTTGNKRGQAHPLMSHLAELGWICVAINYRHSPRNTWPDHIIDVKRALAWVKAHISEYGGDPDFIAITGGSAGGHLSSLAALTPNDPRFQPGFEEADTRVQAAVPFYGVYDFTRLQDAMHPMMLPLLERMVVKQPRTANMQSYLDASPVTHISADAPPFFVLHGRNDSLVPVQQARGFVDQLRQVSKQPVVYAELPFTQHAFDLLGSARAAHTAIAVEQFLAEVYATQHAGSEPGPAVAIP

[9] = test system: Mycobacterium tuberculosis H37Rv; experiment: Inhibition of lipase in Mycobacterium tuberculosis H37Rv infected in human monocyte derived macrophages assessed as inhibition of bacterial growth treated for 7 days starting from 4 day post infection relative to control
[10] = target: T5, Probable lipase/esterase LipG (Mycobacterium tuberculosis (strain ATCC 25618 / H37Rv)) (UniProt P96935); experiment: Competitive binding affinity to Mycobacterium tuberculosis H37Rv ATCC 25618 lipase-G at 60 uM preincubated for 60 mins followed by La-1 probe addition measured after 30 mins by ABPP method
T5 sequence (whole entry): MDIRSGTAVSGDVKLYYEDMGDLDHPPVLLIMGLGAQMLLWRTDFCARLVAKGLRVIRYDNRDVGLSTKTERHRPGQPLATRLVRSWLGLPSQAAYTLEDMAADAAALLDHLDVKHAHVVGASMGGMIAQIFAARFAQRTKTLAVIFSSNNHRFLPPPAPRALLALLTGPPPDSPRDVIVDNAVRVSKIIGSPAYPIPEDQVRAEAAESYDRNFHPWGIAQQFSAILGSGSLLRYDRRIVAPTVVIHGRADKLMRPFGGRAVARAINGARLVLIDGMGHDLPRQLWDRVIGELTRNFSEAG

[11] = target: T1, Putative acetyl-hydrolase LipR (Mycobacterium tuberculosis (strain ATCC 25618 / H37Rv)); experiment: Competitive binding affinity to Mycobacterium tuberculosis H37Rv ATCC 25618 lipaseR at 60 uM preincubated for 60 mins followed by La-1 probe addition measured after 30 mins by ABPP method
[12] = test system: Mycobacterium tuberculosis H37Rv; experiment: Inhibition of lipase in Mycobacterium tuberculosis H37Rv expressing GFP assessed as cell growth inhibition at 4 uM by fluorescence assay
[13] = target: T6, Probable esterase LipO (Mycobacterium tuberculosis (strain ATCC 25618 / H37Rv)) (UniProt O06832); experiment: Competitive binding affinity to Mycobacterium tuberculosis H37Rv ATCC 25618 lipase-O at 60 uM preincubated for 60 mins followed by La-1 probe addition measured after 30 mins by ABPP method
T6 sequence (whole entry): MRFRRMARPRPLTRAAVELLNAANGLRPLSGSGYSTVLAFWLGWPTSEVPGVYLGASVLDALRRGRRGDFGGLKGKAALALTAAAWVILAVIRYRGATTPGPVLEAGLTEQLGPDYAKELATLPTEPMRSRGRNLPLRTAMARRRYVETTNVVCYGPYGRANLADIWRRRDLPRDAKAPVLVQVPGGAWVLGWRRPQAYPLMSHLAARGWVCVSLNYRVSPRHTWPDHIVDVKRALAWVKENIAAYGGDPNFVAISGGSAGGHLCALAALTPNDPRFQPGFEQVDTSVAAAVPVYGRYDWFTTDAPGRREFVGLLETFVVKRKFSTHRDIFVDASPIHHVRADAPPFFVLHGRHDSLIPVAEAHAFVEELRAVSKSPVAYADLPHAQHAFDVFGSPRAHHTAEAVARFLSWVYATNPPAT

[14] = target: T7, Carboxylic ester hydrolase LipN (Mycobacterium tuberculosis (strain ATCC 25618 / H37Rv)) (UniProt P95125); experiment: Competitive binding affinity to Mycobacterium tuberculosis H37Rv ATCC 25618 lipaseN at 60 uM preincubated for 60 mins followed by La-1 probe addition measured after 30 mins by ABPP method
T7 sequence (whole entry): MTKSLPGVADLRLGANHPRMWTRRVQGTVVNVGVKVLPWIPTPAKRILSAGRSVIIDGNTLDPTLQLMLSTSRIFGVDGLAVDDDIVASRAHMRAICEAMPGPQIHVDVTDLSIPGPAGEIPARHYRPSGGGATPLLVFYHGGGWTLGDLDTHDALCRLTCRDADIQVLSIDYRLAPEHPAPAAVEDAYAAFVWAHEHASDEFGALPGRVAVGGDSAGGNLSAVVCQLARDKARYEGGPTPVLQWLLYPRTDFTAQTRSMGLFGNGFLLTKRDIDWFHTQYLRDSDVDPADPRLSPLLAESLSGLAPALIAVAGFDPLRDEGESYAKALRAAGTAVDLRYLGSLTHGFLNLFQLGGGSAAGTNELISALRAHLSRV

[15] = test system: Mycobacterium tuberculosis H37Rv; experiment: Ratio of MIC for inhibition of lipase in Mycobacterium tuberculosis H37Rv assessed as cell growth inhibition in absence of vancomycin to MIC for inhibition of lipase in Mycobacterium tuberculosis H37Rv assessed as cell growth inhibition in presence of vancomycin

CN[C@H](CC(C)C)C(=O)N[C@H]1C(=O)N[C@@H](CC(N)=O)C(=O)N[C@H]2C(=O)N[C@H]3C(=O)N[C@H](C(=O)N[C@H](C(=O)O)c4cc(O)cc(O)c4-c4cc3ccc4O)[C@H](O)c3ccc(c(Cl)c3)Oc3cc2cc(c3O[C@@H]2O[C@H](CO)[C@@H](O)[C@H](O)[C@H]2O[C@H]2C[C@](C)(N)[C@H](O)[C@H](C)O2)Oc2ccc(cc2Cl)[C@H]1O
Ratio [1]: 16

CO[C@H]1/C=C/O[C@@]2(C)Oc3c(C)c(O)c4c(O)c(c(/C=N/N5CCN(C)CC5)c(O)c4c3C2=O)NC(=O)/C(C)=C\C=C\[C@H](C)[C@H](O)[C@@H](C)[C@@H](O)[C@@H](C)[C@H](OC(C)=O)[C@@H]1C [RIFAMPIN]
MIC [2]: 0.04 to 1 µM

NNC(=O)c1ccncc1 [ISONIAZID]
MIC [2]: 0.04 to 1 µM

CCCCCCCCCCC[C@@H](C[C@@H]1OC(=O)[C@H]1CCCCCC)OC(=O)[C@H](CC(C)C)NC=O [ORLISTAT]
MIC [3]: 30 µM (≈ 14.9 µg/mL)

C#CC1CCN(C(=O)Oc2nsnc2N2CCCCC2)CC1
growth inhibition (GI) [4]: Active | Activity [5]: Active

O=C(Oc1nsnc1N1CCCCC1)N1CCCCC1
Activity [6]: Active | Activity [7]: Active | Activity [8]: Active | MIC [4]: 25 to 50 µM (≈ 7.41 to 14.8 µg/mL) | growth inhibition (GI) [9]: 55% | Activity [10]: Active | Activity [11]: Active | growth inhibition (GI) [12]: Active | Activity [13]: Active | Activity [14]: Active | Ratio [15]: 4
